{
  "source": "patent US20190151290A1",
  "about": "(Hoffmann-La Roche Inc., priority 2015, published 2019)",
  "key": {"[1]": {"tested_on": "patients who had a linear GFR decline (diabetic nephropathy patients)", "conditions": "due to hemodynamic response"}, "[2]": {"tested_on": "patients with type 2 diabetes mellitus and acute coronary syndrome", "format": "in vivo", "conditions": "aleglitazar 150 μg daily vs placebo, overall population"}},
  "data": [
    {"compound": "CO[C@@H](Cc1ccc(OCCc2nc(-c3ccccc3)oc2C)c2ccsc12)C(=O)O", "note": "[aleglitazar, (S)-2-methoxy-3-{4-[2-(5-methyl-2-phenyl-oxazol-4-yl)-ethoxy]-benzo[b]thiophen-7-yl}-propionic acid]", "values": [
      {"measurement": "initial drop of GFR", "setting": "[1]", "value": "reversible after stopping the drug"},
      {"measurement": "hemoglobin A1C", "setting": "[2]", "value": "reduced"},
      {"measurement": "incidence of cardiovascular death, myocardial infarction or stroke", "setting": "[2]", "value": "did not significantly decrease"},
      {"measurement": "serum HDL-C level", "setting": "[2]", "value": "improved"},
      {"measurement": "serum triglyceride level", "setting": "[2]", "value": "improved"}
    ]}
  ]
}
